Converted amounts (≈) assume the structure as drawn. Where a name gives a salt, the structure may show the parent alone.
Key:
[1] = tested on: avian influenza virus H7N7; assay: microbe, parasite or virus in culture; assay type: cell-based; conditions: H7N7, MDCK; for OD value (A): MTT; for inhibition at 39.06 µg/mL / inhibition at 78.12 µg/mL / inhibition at 156.25 µg/mL / IC50: unidentified influenza virus; for inhibition at 39.06 µg/mL / inhibition at 78.12 µg/mL / inhibition at 156.25 µg/mL: H7N7; for IC50: H7N7 virus, MDCK cells
[2] = tested on: dry yeast induced fever in rats; assay: Antipyretic effect, dry yeast induced fever in rats, rectal temperature; assay type: in vivo, SD rats
MDCK cells = assay: Toxicity of the tested substance on MDCK cells, MTT method; conditions: OD 570 nm, 3 days
[3] = tested on: avian influenza virus H9N2; assay: microbe, parasite or virus in culture; assay type: cell-based; conditions: H9N2, MDCK; for OD value (A): MTT; for inhibition at 39.06 µg/mL / inhibition at 78.12 µg/mL / inhibition at 156.25 µg/mL / IC50: Influenza A virus; for inhibition at 39.06 µg/mL / inhibition at 78.12 µg/mL / inhibition at 156.25 µg/mL: H9N2; for IC50: H9N2 virus, MDCK cells
[4] = 39.06 μg/ml, first of 2 experiments
[5] = 39.06 μg/ml, second of 2 experiments
[6] = 78.12 μg/ml, first of 2 experiments
[7] = 78.12 μg/ml, second of 2 experiments
[8] = 156.25 μg/ml, first of 2 experiments
[9] = 156.25 μg/ml, second of 2 experiments

SMILES: NC12CC3CC(CC(C3)C1)C2 [Adamantanamine, amantadine hydrochloride]
- OD value (A) [1, 4]: 0.55 ± 0.04 A
- OD value (A) [1, 5]: 0.57 ± 0.07 A
- OD value (A) [1, 6]: 0.86 ± 0.08 A
- OD value (A) [1, 7]: 0.81 ± 0.04 A
- OD value (A) [1, 8]: 1.01 ± 0.07 A
- OD value (A) [1, 9]: 0.98 ± 0.09 A
- inhibition at 39.06 µg/mL [1, 4]: 36%
- inhibition at 39.06 µg/mL [1, 5]: 38%
- inhibition at 78.12 µg/mL [1, 6]: 60%
- inhibition at 78.12 µg/mL [1, 7]: 55%
- inhibition at 156.25 µg/mL [1, 8]: 71%
- inhibition at 156.25 µg/mL [1, 9]: 68%
- IC50 ([1]; first of 2 experiments): 62 µg/mL
- IC50 ([1]; second of 2 experiments): 66 µg/mL

SMILES: CC(=O)Oc1ccccc1C(=O)O [Aspirin]
- rectal temperature ([2]; 100 mg/kg by gavage 0.5 h and […] after pyrogen, baseline value, 1 h before the injection of pyrogen, n = 5): 37.8 °C
- rectal temperature ([2]; 100 mg/kg by gavage, 1 h after the injection of pyrogen): 38.0 °C
- rectal temperature ([2]; 100 mg/kg by gavage, 2 h after the injection of pyrogen): 37.5 °C
- rectal temperature ([2]; 100 mg/kg by gavage, 3 h after the injection of pyrogen): 37.7 °C
- rectal temperature ([2]; 100 mg/kg by gavage, 4 h after the injection of pyrogen): 37.8 °C
- rectal temperature ([2]; 100 mg/kg by gavage, 5 h after the injection of pyrogen): 38.1 °C
- rectal temperature ([2]; 100 mg/kg by gavage, 6 h after the injection of pyrogen): 38.1 °C
- rectal temperature ([2]; 100 mg/kg by gavage, 7 h after the injection of pyrogen): 38.3 °C
- rectal temperature ([2]; 100 mg/kg by gavage, 8 h after the injection of pyrogen): 38.5 °C
- rectal temperature ([2]; 100 mg/kg by gavage, 9 h after the injection of pyrogen): 38.8 °C
- time for which the effect of reducing the body temperature was maintained ([2]; 100 mg·kg^−1, starting from […] after the injection of the pyrogen): 4 h

SMILES: NC12CC3CC(CC(C3)C1)C2 [amantadine]
- OD value (A) (MDCK cells; 39.06 μg/ml): 1.20 ± 0.04 A
- OD value (A) (MDCK cells; 78.12 μg/ml): 1.05 ± 0.02 A
- OD value (A) (MDCK cells; 156.25 μg/ml): 0.96 ± 0.05 A
- OD value (A) [3, 4]: 0.37 ± 0.02 A
- OD value (A) [3, 5]: 0.32 ± 0.03 A
- OD value (A) [3, 6]: 0.64 ± 0.05 A
- OD value (A) [3, 7]: 0.46 ± 0.03 A
- OD value (A) [3, 8]: 0.71 ± 0.07 A
- OD value (A) [3, 9]: 0.68 ± 0.15 A
- inhibition at 39.06 µg/mL [3, 4]: 34%
- inhibition at 39.06 µg/mL [3, 5]: 27%
- inhibition at 78.12 µg/mL [3, 6]: 65%
- inhibition at 78.12 µg/mL [3, 7]: 42%
- inhibition at 156.25 µg/mL [3, 8]: 72%
- inhibition at 156.25 µg/mL [3, 9]: 66%
- IC50 ([3]; first of 2 experiments): 63 µg/mL (≈ 417 µM)
- IC50 ([3]; second of 2 experiments): 66 µg/mL (≈ 436 µM)

— patent US11235015B2, “Antiviral Traditional Chinese Medicine composition and preparation method and use i'hereof” (priority 2017, dated 2022)
